{"source": "patent US20250230193A1", "about": "“CYCLIC COMPOUND HAVING SELECTIVE KRAS INHIBITORY EFFECT ON HRAS AND NRAS” (CHUGAI SEIYAKU KABUSHIKI KAISHA, priority 2022, published 2025)", "key": {"[1]": {"target": "GDP-bound NRAS wild-type protein (Homo sapiens, UniProt P01111)", "sequence (P01111 whole entry)": "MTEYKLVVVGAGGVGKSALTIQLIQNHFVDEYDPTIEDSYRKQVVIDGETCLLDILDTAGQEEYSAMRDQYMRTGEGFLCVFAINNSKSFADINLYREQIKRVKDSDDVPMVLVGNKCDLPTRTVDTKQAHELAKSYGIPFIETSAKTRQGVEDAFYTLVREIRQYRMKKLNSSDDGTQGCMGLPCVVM", "assay": "Binding to NRAS by surface plasmon resonance (SPR), Single Cycle Kinetics", "settings": "for NRAS/KRAS (ratio of KD value with respect to NRAS to KD value with respect to KRAS) / NRAS/KRAS (ratio of KD for GDP-bound NRAS wild-type to KD for KRAS): SPR; for NRAS/KRAS (ratio of KD value with respect to NRAS to KD value with respect to KRAS): GDP-bound NRAS wild-type vs GDP-bound KRAS wild-type"}, "[2]": {"target": "GDP-bound HRAS wild-type protein (Homo sapiens, UniProt P01112)", "sequence (P01112 whole entry)": "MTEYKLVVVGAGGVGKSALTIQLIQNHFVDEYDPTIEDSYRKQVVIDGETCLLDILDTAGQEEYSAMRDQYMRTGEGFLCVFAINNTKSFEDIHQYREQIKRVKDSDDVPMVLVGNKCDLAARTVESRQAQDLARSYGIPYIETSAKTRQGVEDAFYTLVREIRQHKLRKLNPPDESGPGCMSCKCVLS", "assay": "Binding to HRAS by surface plasmon resonance (SPR), Single Cycle Kinetics", "settings": "for HRAS/KRAS (ratio of KD value with respect to HRAS to KD value with respect to KRAS) / HRAS/KRAS (ratio of KD for GDP-bound HRAS wild-type to KD for KRAS): SPR; for HRAS/KRAS (ratio of KD value with respect to HRAS to KD value with respect to KRAS): GDP-bound HRAS wild-type vs GDP-bound KRAS wild-type"}}, "note": "Where a SMILES comes first, the peptide text is derived from it. Bridges are numbered along the chain shown (N, C = ends). [ ]: non-standard residue; d: D form. The star is where a group is joined. hPhe(3-Cl-4-CF3) = N[C@@H](CCc1ccc(C(F)(F)F)c(Cl)c1)C(=O)O; NPrPhe(4-CF3) = CCCN[C@@H](Cc1ccc(C(F)(F)F)cc1)C(=O)O; NMeGly(cPent) = CN[C@H](C(=O)O)C1CCCC1; Pro(4,4-F2) = O=C(O)[C@@H]1CC(F)(F)CN1; NMeL = CN[C@@H](CC(C)C)C(=O)O; Morpholide = C1CN(*)CCO1; Ac5c = NC1(C(=O)O)CCCC1; Aze = O=C(O)[C@@H]1CCN1; Ac4c = NC1(C(=O)O)CCC1; Sar = CNCC(=O)O", "data": [{"smiles": "CCO[C@@H]1C[C@H]2C(=O)NC3(CC(C)(C)C3)C(=O)N(C)[C@@H](C(CC)CC)C(=O)N(C)[C@H](C(=O)N(C)C)CC(=O)N(C)[C@@H](CC)C(=O)N[C@@H]([C@@H](C)CC)C(=O)N(C)CC(=O)N(C)[C@H]3C/C=C\\CCN(C3=O)[C@@H](Cc3ccc(C(F)(F)F)cc3)C(=O)N(C)CC(=O)N[C@@H](CCc3ccc(C(F)(F)F)c(OC)c3)C(=O)N2C1", "note": "[PP2066]", "values": [{"measurement": "NRAS/KRAS (ratio of KD value with respect to NRAS to KD value with respect to KRAS)", "setting": "[1]", "value": "A (a compound having 10 or more and less than 20 is denoted as A)"}, {"measurement": "HRAS/KRAS (ratio of KD value with respect to HRAS to KD value with respect to KRAS)", "setting": "[2]", "value": "B (a compound having 3 or more and less than 10 is denoted as B)"}]}, {"smiles": "CCO[C@@H]1C[C@H]2C(=O)NC3(CC(C)(C)C3)C(=O)N(C)[C@@H](C(CC)CC)C(=O)N(C)[C@H](C(=O)N(C)C)CC(=O)N(C)[C@@H](CC)C(=O)N[C@@H]([C@@H](C)CC)C(=O)N(C)CC(=O)N(C)[C@H]3C/C=C\\CCN(C3=O)[C@@H](Cc3ccc(C)cc3)C(=O)N(C)CC(=O)N[C@@H](CCc3ccc(C(F)(F)F)c(OC)c3)C(=O)N2C1", "note": "[PP2170]", "values": [{"measurement": "NRAS/KRAS (ratio of KD value with respect to NRAS to KD value with respect to KRAS)", "setting": "[1]", "value": "A (a compound having 10 or more and less than 20 is denoted as A)"}, {"measurement": "HRAS/KRAS (ratio of KD value with respect to HRAS to KD value with respect to KRAS)", "setting": "[2]", "value": "A (a compound having 10 or more and less than 20 is denoted as A)"}]}, {"smiles": "CCO[C@@H]1C[C@H]2C(=O)NC3(CCC3)C(=O)N(C)[C@@H](C3CCCC3)C(=O)N(C)[C@H](C(=O)N(C)C)CC(=O)N(C)[C@@H](CC)C(=O)N[C@@H]([C@@H](C)CC)C(=O)N(C)CC(=O)N(C)[C@H]3CCCCN(C3=O)[C@@H](Cc3ccc(C(F)(F)F)cc3)C(=O)N(C)CC(=O)N[C@@H](CCc3ccc(C(F)(F)F)cc3F)C(=O)N2C1", "note": "[PP0885]", "values": [{"measurement": "NRAS/KRAS (ratio of KD value with respect to NRAS to KD value with respect to KRAS)", "setting": "[1]; KD ratio", "value": "C (A compound having a KD ratio of 0.1 or more and less than 3 is denoted as C)"}, {"measurement": "HRAS/KRAS (ratio of KD value with respect to HRAS to KD value with respect to KRAS)", "setting": "[2]; KD ratio", "value": "B (a compound having 3 or more and less than 10 is denoted as B)"}]}, {"smiles": "CCO[C@@H]1C[C@H]2C(=O)NC3(CCC3)C(=O)N(C)[C@@H](C3CCCC3)C(=O)N(CC)[C@H](C(=O)N3CCOCC3)CC(=O)N(C)[C@@H](CCOC)C(=O)N[C@@H]([C@@H](C)CC)C(=O)N(C)CC(=O)N(C)[C@H]3CCCCCN(C3=O)[C@@H](Cc3ccc(C(F)(F)F)cc3)C(=O)N(C)CC(=O)N[C@@H](CCc3cc(F)c(C(F)(F)F)c(F)c3)C(=O)N2C1", "note": "[PP0947]", "values": [{"measurement": "NRAS/KRAS (ratio of KD value with respect to NRAS to KD value with respect to KRAS)", "setting": "[1]; KD ratio", "value": "A (a compound having 10 or more and less than 20 is denoted as A)"}, {"measurement": "HRAS/KRAS (ratio of KD value with respect to HRAS to KD value with respect to KRAS)", "setting": "[2]; KD ratio", "value": "A (a compound having 10 or more and less than 20 is denoted as A)"}]}, {"smiles": "CCO[C@@H]1C[C@H]2C(=O)NC3(CCC3)C(=O)N(C)[C@@H](C3CCCC3)C(=O)N(C)[C@H](C(=O)N(C)C)CC(=O)N(C)[C@H]3CCCCCc4ccc(cc4)C[C@@H](C(=O)N(C)CC(=O)N[C@@H](CCc4ccc(C(F)(F)F)c(OC)c4)C(=O)N2C1)N1CC/C=C\\C[C@@H](C1=O)N(C)C(=O)CN(C)C(=O)[C@H]([C@@H](C)CC)NC3=O", "note": "[PP2262]", "values": [{"measurement": "NRAS/KRAS (ratio of KD value with respect to NRAS to KD value with respect to KRAS)", "setting": "[1]", "value": "A (a compound having 10 or more and less than 20 is denoted as A)"}, {"measurement": "HRAS/KRAS (ratio of KD value with respect to HRAS to KD value with respect to KRAS)", "setting": "[2]", "value": "B (a compound having 3 or more and less than 10 is denoted as B)"}]}, {"smiles": "CCCN1C(=O)CN(C)C(=O)[C@@H]2CCN2C(=O)[C@H]([C@@H](C)CC)NC(=O)[C@H](CC(C)C)N(C)C(=O)C[C@@H](C(=O)N(C)C)NC(=O)[C@H](C2CCCC2)N(C)C(=O)C2(CCCC2)NC(=O)[C@@H]2CCCN2C(=O)[C@H](CCc2ccc(C(F)(F)F)c(Cl)c2)NC(=O)CN(C)C(=O)[C@@H]1Cc1ccc(C(F)(F)F)cc1", "note": "[PP0373] ([NMeL]I[Aze][Sar][NPrPhe(4-CF3)][Sar][hPhe(3-Cl-4-CF3)]P[Ac5c][NMeGly(cPent)]D-NMe2; lactam N-11)", "values": [{"measurement": "NRAS/KRAS (ratio of KD for GDP-bound NRAS wild-type to KD for KRAS)", "setting": "[1]; KD ratio NRAS/KRAS", "value": "B (a compound having 3 or more and less than 10 is denoted as B)"}, {"measurement": "HRAS/KRAS (ratio of KD for GDP-bound HRAS wild-type to KD for KRAS)", "setting": "[2]; KD ratio HRAS/KRAS", "value": "B (a compound having 3 or more and less than 10 is denoted as B)"}]}, {"smiles": "CCC[C@H]1C(=O)N[C@@H]([C@@H](C)CC)C(=O)N(C)CC(=O)N(C)[C@H]2C/C=C\\CCN(C2=O)[C@@H](Cc2ccc(C(F)(F)F)cc2)C(=O)N(C)CC(=O)N[C@@H](CCc2ccc3sc(F)c(C)c3c2)C(=O)N2C[C@H](OCC)C[C@H]2C(=O)NC2(CC(C)(C)C2)C(=O)N(C)[C@@H](C(CC)CC)C(=O)N(C)[C@H](C(=O)N(C)C)CC(=O)N1C", "note": "[PP2892]", "values": [{"measurement": "NRAS/KRAS (ratio of KD value with respect to GDP-bound NRAS wild-type protein to KD value with respect to KRAS)", "setting": "[1]; KD ratio NRAS/KRAS, class symbols", "value": "A (a compound having 10 or more and less than 20 is denoted as A)"}, {"measurement": "HRAS/KRAS (ratio of KD value with respect to GDP-bound HRAS wild-type protein to KD value with respect to KRAS)", "setting": "[2]; KD ratio HRAS/KRAS, class symbols", "value": "A (a compound having 10 or more and less than 20 is denoted as A)"}]}, {"smiles": "CCCN1C(=O)CN(C)C(=O)CNC(=O)[C@H]([C@@H](C)CC)NC(=O)[C@H](CC(C)C)N(C)C(=O)C[C@@H](C(=O)N2CCOCC2)NC(=O)[C@H](C2CCCC2)N(C)C(=O)C2(CCC2)NC(=O)[C@@H]2CC(F)(F)CN2C(=O)[C@H](CCc2ccc(C(F)(F)F)c(Cl)c2)NC(=O)CN(C)C(=O)[C@@H]1Cc1ccc(C(F)(F)F)cc1", "note": "[PP0328] ([NMeL]IG[Sar][NPrPhe(4-CF3)][Sar][hPhe(3-Cl-4-CF3)][Pro(4,4-F2)][Ac4c][NMeGly(cPent)]D-Morpholide; lactam N-11)", "values": [{"measurement": "NRAS/KRAS (ratio of KD for GDP-bound NRAS wild-type to KD for KRAS)", "setting": "[1]; KD ratio NRAS/KRAS", "value": "B (a compound having 3 or more and less than 10 is denoted as B)"}, {"measurement": "HRAS/KRAS (ratio of KD for GDP-bound HRAS wild-type to KD for KRAS)", "setting": "[2]; KD ratio HRAS/KRAS", "value": "B (a compound having 3 or more and less than 10 is denoted as B)"}]}]}
